Measured values taken from patent US9963467B2, “Boronic acid derivatives and therapeutic uses thereof” (Rempex Pharmaceuticals, Inc., priority 2014, dated 2018).

Experiments:
ec302 (TEM-10) [1] = assay: Aztreonam potentiation (MPC@4), ec302; assay type: cell-based; settings: BLI with aztreonam at 4 μg/mL
KP1010 (SHV-12) = assay: Tigemonam potentiation (MPC@4), KP1010; assay type: cell-based
ECL1002 [2] = assay: Aztreonam potentiation (MPC@4), ECL1002; assay type: cell-based; settings: BLI with aztreonam at 4 μg/mL
KP1086 (OXA-48) = assay: Biapenem potentiation (MPC@1), KP1086; settings: BLI with biapenem at 1 μg/mL
SHV-12 = SHV-12 (Klebsiella pneumoniae, UniProt P0AD64, E235K/G234S/L31Q); assay: Ki, nitrocefin cleavage by purified enzyme, SHV-12; assay type: biochemical; settings: nitrocefin reporter substrate; read-out: Ki (SHV-12, NCF)
SHV-12, sequence (P0AD64 22-286 L31Q/G234S/E235K): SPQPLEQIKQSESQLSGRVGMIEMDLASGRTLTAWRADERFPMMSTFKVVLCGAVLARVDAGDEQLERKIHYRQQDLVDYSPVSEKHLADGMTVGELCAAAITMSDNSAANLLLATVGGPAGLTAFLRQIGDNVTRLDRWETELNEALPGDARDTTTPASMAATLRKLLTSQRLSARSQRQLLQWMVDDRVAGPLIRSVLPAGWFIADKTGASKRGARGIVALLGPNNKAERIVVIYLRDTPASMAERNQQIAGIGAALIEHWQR
Summary of the method: (§1)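 10 min RT preincubation, enzyme with inhibitor series in reaction buffer. Substrate nitrocefin; kinetic read 490 nm, 10 sec intervals, 10 min total.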

ec308 (SHV-5) = assay: Tigemonam potentiation (MPC@4), ec308; assay type: cell-based
CTX-M-14 = CTX-M-14 (Escherichia coli, UniProt Q9L5C7); assay: Ki, nitrocefin cleavage by purified enzyme, CTX-M-14; assay type: biochemical; settings: nitrocefin reporter substrate; read-out: Ki (CTX-M-14, NCF)
CTX-M-14, sequence (Q9L5C7 29-291): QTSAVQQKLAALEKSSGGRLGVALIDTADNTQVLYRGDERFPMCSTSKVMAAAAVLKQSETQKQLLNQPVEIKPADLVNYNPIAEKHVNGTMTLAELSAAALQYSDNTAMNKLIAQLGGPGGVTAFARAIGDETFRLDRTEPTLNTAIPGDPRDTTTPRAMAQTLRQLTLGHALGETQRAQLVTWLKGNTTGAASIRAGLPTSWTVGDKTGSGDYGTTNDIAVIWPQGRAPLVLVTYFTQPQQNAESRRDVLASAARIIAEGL
Summary of the method: as §1

[3] = Monomer content of pH adjusted aqueous solutions (LC-UV); assay type: physicochemical; settings: pH adjusted to 7.6 to 8, LC-UV; for % Monomer in 1 mg/mL salt solution: 1 mg/mL aqueous salt solution; for % Monomer in 10 mg/mL salt solution: 10 mg/mL aqueous salt solution; for % Monomer in 100 mg/mL salt solution: 100 mg/mL aqueous salt solution
Summary of the method: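 Aqueous solutions at 1.00, 10.0 or 100 mg/mL (active fraction) brought to pH 7.6–8 with acid or base, compound fully dissolved. Injected within half an hour of preparation onto C18 reversed-phase LC (0.1% TFA water / 0.085% TFA methanol gradient); UV detection at 220, 254 and 300 nm.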

ec302 (TEM-10) [4] = assay: Tigemonam potentiation (MPC@4), ec302; assay type: cell-based
KP1005 (CTX-M-14) = assay: Tigemonam potentiation (MPC@4), KP1005; assay type: cell-based; settings: BLI with tigemonam at 4 μg/mL
EC1010 (CMY-6) [5] = assay: organism not typed; assay type: cell-based
KP1009 (CTX-M-15) = assay: Tigemonam potentiation (MPC@4), KP1009; assay type: cell-based; settings: BLI with tigemonam at 4 μg/mL
Pa AmpC = Pa AmpC (Pseudomonas aeruginosa, UniProt P24735); assay: Ki, nitrocefin cleavage by purified enzyme, Pa AmpC; assay type: biochemical; settings: nitrocefin reporter substrate; read-out: Ki (Pa AmpC, NCF)
Pa AmpC, sequence (P24735 27-397): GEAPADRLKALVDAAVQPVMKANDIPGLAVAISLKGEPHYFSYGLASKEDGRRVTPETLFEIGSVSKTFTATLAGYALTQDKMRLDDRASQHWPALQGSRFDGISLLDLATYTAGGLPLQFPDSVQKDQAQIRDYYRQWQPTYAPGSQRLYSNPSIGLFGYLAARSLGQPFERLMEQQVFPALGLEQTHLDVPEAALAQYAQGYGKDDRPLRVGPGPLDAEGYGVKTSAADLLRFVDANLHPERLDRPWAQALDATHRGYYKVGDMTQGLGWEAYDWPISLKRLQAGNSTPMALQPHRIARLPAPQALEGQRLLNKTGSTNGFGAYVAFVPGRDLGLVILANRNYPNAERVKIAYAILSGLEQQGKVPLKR
Summary of the method: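 Nitrocefin hydrolysis by purified β-lactamase is followed at 490 nm every 10 sec for 10 min. Before substrate is added, enzyme sits with varying inhibitor concentrations for 10 min at room temperature. Ki comes from these cleavage profiles.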

ECL1002 [6] = assay: Tigemonam potentiation (MPC@4), ECL1002; assay type: cell-based; settings: BLI with tigemonam at 4 μg/mL
KPC-2 = KPC-2 (Klebsiella pneumoniae, UniProt Q9F663); assay: Ki, nitrocefin cleavage by purified enzyme, KPC-2; assay type: biochemical; settings: nitrocefin reporter substrate; read-out: Ki (KPC-2, NCF)
KPC-2, sequence (Q9F663 25-293, looked up, species assumed): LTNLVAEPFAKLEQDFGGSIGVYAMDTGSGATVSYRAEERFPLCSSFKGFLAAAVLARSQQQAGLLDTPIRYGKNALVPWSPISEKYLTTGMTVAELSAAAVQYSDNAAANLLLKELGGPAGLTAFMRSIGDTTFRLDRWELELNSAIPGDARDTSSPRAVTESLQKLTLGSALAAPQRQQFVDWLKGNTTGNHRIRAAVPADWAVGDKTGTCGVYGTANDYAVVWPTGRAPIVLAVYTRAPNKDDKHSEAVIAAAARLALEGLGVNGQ
Summary of the method: as §1

KP1004 (KPC-2) [7] = assay: Biapenem potentiation (MPC@1), KP1004; settings: BLI with biapenem at 1 μg/mL
P99 = P99 (Enterobacter cloacae, UniProt P05364); assay: Ki, nitrocefin cleavage by purified enzyme, P99; assay type: biochemical; settings: nitrocefin reporter substrate; read-out: Ki (P99, NCF)
P99, sequence (P05364 21-381): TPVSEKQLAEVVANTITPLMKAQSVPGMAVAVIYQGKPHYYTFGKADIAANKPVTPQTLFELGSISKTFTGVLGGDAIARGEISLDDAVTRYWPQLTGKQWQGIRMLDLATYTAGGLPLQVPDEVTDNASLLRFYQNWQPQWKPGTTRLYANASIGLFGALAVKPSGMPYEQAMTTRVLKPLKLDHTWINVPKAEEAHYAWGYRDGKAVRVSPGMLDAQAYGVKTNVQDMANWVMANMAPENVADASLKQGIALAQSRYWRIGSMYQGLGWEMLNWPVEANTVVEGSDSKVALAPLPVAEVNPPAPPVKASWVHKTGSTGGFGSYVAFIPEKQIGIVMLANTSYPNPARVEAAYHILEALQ
Summary of the method: as §1

OXA-48 = OXA-48 (Klebsiella pneumoniae, UniProt Q6XEC0); assay: Ki, nitrocefin cleavage by purified enzyme, OXA-48; assay type: biochemical; settings: nitrocefin reporter substrate; read-out: Ki (OXA-48, NCF)
OXA-48, sequence (Q6XEC0 23-265, looked up, species assumed): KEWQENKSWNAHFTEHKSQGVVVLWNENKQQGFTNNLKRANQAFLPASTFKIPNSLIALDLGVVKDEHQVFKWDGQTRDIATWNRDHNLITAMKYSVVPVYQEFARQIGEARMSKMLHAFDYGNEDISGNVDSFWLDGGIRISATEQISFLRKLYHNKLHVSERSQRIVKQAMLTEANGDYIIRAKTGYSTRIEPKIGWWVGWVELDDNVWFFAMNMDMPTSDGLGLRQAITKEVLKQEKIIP
Summary of the method: as §1

[8] = Intravenous pharmacokinetics; assay type: in vivo; settings: rat, plasma; rats, 20 mg/kg, intravenous infusion over 0.5 hours; read-out: Free Cl (converted)
Procedure: Rats (n=3 per compound) were administered by a single infusion. Intravenous doses were infused over 0.5 hours via an indwelling femoral vein cannula. […] (˜0.3 mL) samples were collected from each rat at designated time points up to 24 hours. Blood samples were centrifuged within 5 min of collection at 12000 g for 5 min to obtain plasma. The plasma samples were stored at −80° C. until analyzed. Data were analyzed using WinNonlin. The doses of all compounds tested were 20 mg/kg.

EC1010 (CMY-6) [9] = assay: Tigemonam potentiation (MPC@4), EC1010; assay type: cell-based; settings: BLI with tigemonam at 4 μg/mL
KP1004 (KPC-2) [10] = assay: Aztreonam potentiation (MPC@4), KP1004; assay type: cell-based; settings: BLI with aztreonam at 4 μg/mL

For `O=C(Cc1cccs1)N[C@H]1Cc2ccc(F)c(C(=O)O)c2OB1O` [Compound 30, (R)-7-fluoro-2-hydroxy-3-(2-(thiophen-2-yl)acetamido)-3,4-dihydro-2H-benzo[e][1,2]oxaborinine-8-carboxylic acid], which “AZT MPC4 TEM-10 ec302” value (ec302 (TEM-10) [1]) is on record?
The value was “Y (MIC of 1 μg/mL to 10 μg/mL)”.

And the “TIG MPC4 SHV-12 KP1010” value (KP1010 (SHV-12))?
Its value is “X (key: X: MIC of less than 1 μg/mL; Y: MIC of 1 μg/mL to 10 μg/mL; Z: MIC of greater than 10 μg/mL)”.

What about the “AZT MPC4 ECL1002” value (ECL1002 [2]) of the same compound?
Its value is “Y (MIC of 1 μg/mL to 10 μg/mL)”.

And the “BPM MPC1 OXA-48 KP1086” value (KP1086 (OXA-48))?
Its value is “Y (MIC of 1 μg/mL to 10 μg/mL)”.

What about the Ki (SHV-12) of the same compound?
Its Ki is < 1 nM.

And the “TIG MPC4 SHV-5 ec308” value (ec308 (SHV-5))?
The value was “X (key: X: MIC of less than 1 μg/mL; Y: MIC of 1 μg/mL to 10 μg/mL; Z: MIC of greater than 10 μg/mL)”.

What about the Ki (CTX-M-14) of the same compound?
Its Ki is < 1 nM.

And the “% Monomer in 1 mg/mL salt solution” value [3]?
Its value is 94.6%.

What about the “% Monomer in 10 mg/mL salt solution” value [3] of the same compound?
The value was 93.5%.

And the “% Monomer in 100 mg/mL salt solution” value [3]?
Its value is 87.6%.

What about the “TIG MPC4 TEM-10 ec302” value (ec302 (TEM-10) [4]) of the same compound?
The value was “Y (key: X: MIC of less than 1 ng/mL; Y: MIC of 1 μg/mL to 10 μg/mL; Z: MIC of greater than 10 μg/mL)”.

And the “TIG MPC4 CTX-M-14 KP1005” value (KP1005 (CTX-M-14))?
Its value is “Y (MIC of 1 μg/mL to 10 μg/mL)”.

And the “AZT MPC4 CMY-6 EC1010” value (EC1010 (CMY-6) [5])?
Its value is “Y (key: X: MIC of less than 1 ng/mL; Y: MIC of 1 μg/mL to 10 μg/mL; Z: MIC of greater than 10 μg/mL)”.

And the “TIG MPC4 CTX-M-15 KP1009” value (KP1009 (CTX-M-15))?
The value was “X (MIC of less than 1 μg/mL)”.

What about the Ki (Pa AmpC) of the same compound?
Its Ki is 1 to 10 nM.

What about the “TIG MPC4 ECL1002” value (ECL1002 [6]) of the same compound?
Its value is “X (MIC of less than 1 μg/mL)”.

And the Ki (KPC-2)?
The Ki was 1 to 10 nM.

What about the “BPM MPC1 KP1004 KPC-2” value (KP1004 (KPC-2) [7]) of the same compound?
Its value is “X (MIC of less than 1 μg/mL)”.

And the Ki (P99)?
Its Ki is 1 to 10 nM.

What about the Ki (OXA-48) of the same compound?
The Ki was < 1 nM.

What about the clearance [8] of the same compound?
Its clearance is 23 mL/min/kg.

And the “TIG MPC4 CMY-6 EC1010” value (EC1010 (CMY-6) [9])?
Its value is “X (MIC of less than 1 μg/mL)”.

Which “AZT MPC4 TEM-10 ec302” value (ec302 (TEM-10) [1]) does the source give for `COc1ccc2c(c1C(=O)O)OB(O)[C@@H](NC(=O)Cc1cccs1)C2` [Compound 29, (R)-2-hydroxy-7-methoxy-3-(2-(thiophen-2-yl)acetamido)-3,4-dihydro-2H-benzo[e][1,2]oxaborinine-8-carboxylic acid] here?
The value was “X (MIC of less than 1 ng/mL)”.

And the “TIG MPC4 SHV-12 KP1010” value (KP1010 (SHV-12))?
The value was “X (key: X: MIC of less than 1 μg/mL; Y: MIC of 1 μg/mL to 10 μg/mL; Z: MIC of greater than 10 μg/mL)”.

And the “BPM MPC1 OXA-48 KP1086” value (KP1086 (OXA-48))?
Its value is “Y (MIC of 1 μg/mL to 10 μg/mL)”.

What about the “AZT MPC4 KPC-2 KP1004” value (KP1004 (KPC-2) [10]) of the same compound?
Its value is “Y (MIC of 1 μg/mL to 10 μg/mL)”.

And the Ki (SHV-12)?
The Ki was < 1 nM.

What about the “TIG MPC4 SHV-5 ec308” value (ec308 (SHV-5)) of the same compound?
Its value is “X (key: X: MIC of less than 1 μg/mL; Y: MIC of 1 μg/mL to 10 μg/mL; Z: MIC of greater than 10 μg/mL)”.

What about the Ki (CTX-M-14) of the same compound?
Its Ki is < 1 nM.

And the “% Monomer in 1 mg/mL salt solution” value [3]?
Its value is 99.4%.

And the “% Monomer in 10 mg/mL salt solution” value [3]?
The value was 98.6%.

What about the “% Monomer in 100 mg/mL salt solution” value [3] of the same compound?
The value was 67.0%.

What about the “TIG MPC4 TEM-10 ec302” value (ec302 (TEM-10) [4]) of the same compound?
Its value is “Y (key: X: MIC of less than 1 ng/mL; Y: MIC of 1 μg/mL to 10 μg/mL; Z: MIC of greater than 10 μg/mL)”.

And the “TIG MPC4 CTX-M-14 KP1005” value (KP1005 (CTX-M-14))?
Its value is “X (MIC of less than 1 μg/mL)”.

What about the “TIG MPC4 CTX-M-15 KP1009” value (KP1009 (CTX-M-15)) of the same compound?
Its value is “X (MIC of less than 1 μg/mL)”.

And the Ki (Pa AmpC)?
Its Ki is 1 to 10 nM.

What about the “TIG MPC4 ECL1002” value (ECL1002 [6]) of the same compound?
Its value is “X (MIC of less than 1 μg/mL)”.

What about the Ki (KPC-2) of the same compound?
The Ki was 1 to 10 nM.

And the “BPM MPC1 KP1004 KPC-2” value (KP1004 (KPC-2) [7])?
The value was “X (MIC of less than 1 μg/mL)”.

What about the Ki (P99) of the same compound?
Its Ki is 1 to 10 nM.

What about the Ki (OXA-48) of the same compound?
The Ki was < 1 nM.

And the clearance [8]?
The clearance was 11.2 mL/min/kg.

What about the “TIG MPC4 CMY-6 EC1010” value (EC1010 (CMY-6) [9]) of the same compound?
The value was “X (MIC of less than 1 μg/mL)”.
